Test results taken from patent US20240109865A1, “INDAZOLE COMPOUNDS AS KINASE INHIBITORS” (TYRA BIOSCIENCES, INC., priority 2020, published 2024).

Key:
Experiment in all cases: Kinase assay, binding constants (Kd), kinase-tagged T7 phage, qPCR
FGFR3 (V555M) = FGFR3 (V555M) (Homo sapiens (Human), UniProt P22607, V555M); details: V555M mutant
Procedure: (§1) Kinase-tagged T7 phage strains were prepared in an E. coli host derived from the BL21 strain. E. coli were grown to log-phase and infected with T7 phage and incubated with shaking at 32° C. until lysis. The lysates were centrifuged and filtered to remove cell debris. Streptavidin-coated magnetic beads were treated with biotinylated small molecule ligands for 30 minutes at room temperature to generate affinity resins for kinase assays. The liganded beads were blocked with excess biotin and washed with blocking buffer SeaBlock (Pierce), […], 1 mM DTT to remove unbound ligand and to reduce non-specific binding.
(§2) Test compounds were prepared as 111λ stocks in 10000 DMS0. Kds were determined using an 11-point 3-fold compound dilution series with three DMSO control points. […] The compounds were then diluted directly into the assays such that the final concentration of DMSO was 0.9%. All reactions performed in polypropylene 384-well plate. Each was a final volume of 0.02 ml. […] The beads were then re-suspended in elution buffer (1×PBS, 0.05% Tween […] non-biotinylated affinity ligand) and incubated at room temperature with shaking for 30 minutes. The kinase concentration in the eluates was measured by qPCR.
(§3) Binding constants were calculated with a standard dose-response curve using the Hill equation: […]
(§4) The Hill Slope was set to −1. Curves were fitted using a non-linear least square fit with the Levenberg-Marquardt algorithm.

FGFR2 = FGFR2 (Homo sapiens (Human), UniProt P21802)
Chain of FGFR2 (P21802 22-821): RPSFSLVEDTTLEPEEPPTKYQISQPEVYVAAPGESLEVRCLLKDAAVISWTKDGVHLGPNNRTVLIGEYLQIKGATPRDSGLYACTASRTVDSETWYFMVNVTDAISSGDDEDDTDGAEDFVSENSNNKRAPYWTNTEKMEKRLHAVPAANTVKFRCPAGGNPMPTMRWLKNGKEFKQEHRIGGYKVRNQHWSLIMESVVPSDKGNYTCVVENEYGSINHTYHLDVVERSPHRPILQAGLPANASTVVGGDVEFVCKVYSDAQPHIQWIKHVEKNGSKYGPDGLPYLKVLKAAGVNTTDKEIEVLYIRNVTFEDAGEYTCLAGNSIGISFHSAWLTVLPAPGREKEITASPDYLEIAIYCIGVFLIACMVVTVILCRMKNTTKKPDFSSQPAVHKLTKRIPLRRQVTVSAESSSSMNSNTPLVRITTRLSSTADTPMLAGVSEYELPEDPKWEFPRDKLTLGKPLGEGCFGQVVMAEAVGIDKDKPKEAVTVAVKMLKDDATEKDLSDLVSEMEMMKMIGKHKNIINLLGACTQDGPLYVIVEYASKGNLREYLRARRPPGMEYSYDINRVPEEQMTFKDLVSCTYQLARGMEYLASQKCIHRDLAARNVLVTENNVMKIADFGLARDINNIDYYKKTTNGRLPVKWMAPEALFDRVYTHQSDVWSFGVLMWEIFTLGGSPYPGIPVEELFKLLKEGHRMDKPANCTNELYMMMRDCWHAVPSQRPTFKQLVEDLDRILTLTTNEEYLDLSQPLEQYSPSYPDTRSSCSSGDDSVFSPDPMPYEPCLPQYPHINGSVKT
Procedure: as §1, §2, §3, §4

FGFR4 = FGFR4 (Homo sapiens (Human), UniProt P22455)
Chain of FGFR4 (P22455 22-802): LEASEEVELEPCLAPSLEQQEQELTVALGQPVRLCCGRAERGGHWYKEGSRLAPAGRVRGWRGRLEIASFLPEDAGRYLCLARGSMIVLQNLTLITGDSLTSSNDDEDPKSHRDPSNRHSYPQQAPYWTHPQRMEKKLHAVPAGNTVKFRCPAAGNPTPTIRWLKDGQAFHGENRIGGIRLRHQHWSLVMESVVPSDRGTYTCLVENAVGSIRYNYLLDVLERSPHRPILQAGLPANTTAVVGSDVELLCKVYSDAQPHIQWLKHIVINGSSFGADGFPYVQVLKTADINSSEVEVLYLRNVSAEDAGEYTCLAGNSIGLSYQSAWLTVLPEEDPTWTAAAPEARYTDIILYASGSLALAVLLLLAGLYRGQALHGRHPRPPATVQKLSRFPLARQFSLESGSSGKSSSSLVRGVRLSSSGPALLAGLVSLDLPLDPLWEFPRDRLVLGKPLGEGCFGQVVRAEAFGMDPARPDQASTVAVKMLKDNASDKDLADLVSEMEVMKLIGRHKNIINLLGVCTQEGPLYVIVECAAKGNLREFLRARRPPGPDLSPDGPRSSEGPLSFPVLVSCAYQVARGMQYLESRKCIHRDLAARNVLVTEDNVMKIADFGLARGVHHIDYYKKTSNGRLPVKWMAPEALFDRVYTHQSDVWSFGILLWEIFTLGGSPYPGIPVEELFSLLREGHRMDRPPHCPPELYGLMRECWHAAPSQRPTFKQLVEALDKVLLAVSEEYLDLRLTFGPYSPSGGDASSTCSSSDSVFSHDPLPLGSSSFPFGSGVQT
Procedure: as §1, §2, §3, §4

FGFR3 = FGFR3 (Homo sapiens (Human), UniProt P22607)
Chain of FGFR3 (P22607 23-806): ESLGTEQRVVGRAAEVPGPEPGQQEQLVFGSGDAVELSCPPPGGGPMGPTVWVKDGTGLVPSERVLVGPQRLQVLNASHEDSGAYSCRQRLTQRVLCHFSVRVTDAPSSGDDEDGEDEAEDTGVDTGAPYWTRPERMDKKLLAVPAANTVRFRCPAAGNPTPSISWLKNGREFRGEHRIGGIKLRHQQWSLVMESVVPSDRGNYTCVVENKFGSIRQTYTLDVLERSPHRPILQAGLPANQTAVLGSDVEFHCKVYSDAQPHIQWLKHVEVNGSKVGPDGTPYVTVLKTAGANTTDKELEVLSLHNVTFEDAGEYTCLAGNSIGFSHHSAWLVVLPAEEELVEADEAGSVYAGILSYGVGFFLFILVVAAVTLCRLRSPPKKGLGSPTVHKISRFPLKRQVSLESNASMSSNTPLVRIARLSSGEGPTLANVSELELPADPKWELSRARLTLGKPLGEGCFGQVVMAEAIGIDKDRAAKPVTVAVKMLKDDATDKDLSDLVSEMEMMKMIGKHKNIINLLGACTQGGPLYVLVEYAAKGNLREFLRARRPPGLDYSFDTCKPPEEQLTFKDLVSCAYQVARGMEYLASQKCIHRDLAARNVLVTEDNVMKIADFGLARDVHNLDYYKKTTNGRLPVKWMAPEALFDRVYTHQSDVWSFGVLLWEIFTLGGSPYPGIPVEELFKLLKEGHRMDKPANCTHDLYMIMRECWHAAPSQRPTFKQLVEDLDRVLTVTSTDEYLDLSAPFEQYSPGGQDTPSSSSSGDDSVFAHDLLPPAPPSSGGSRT
Procedure: as §1, §2, §3, §4

FGFR1 = FGFR1 (Homo sapiens (Human), UniProt P11362)
Chain of FGFR1 (P11362 22-822): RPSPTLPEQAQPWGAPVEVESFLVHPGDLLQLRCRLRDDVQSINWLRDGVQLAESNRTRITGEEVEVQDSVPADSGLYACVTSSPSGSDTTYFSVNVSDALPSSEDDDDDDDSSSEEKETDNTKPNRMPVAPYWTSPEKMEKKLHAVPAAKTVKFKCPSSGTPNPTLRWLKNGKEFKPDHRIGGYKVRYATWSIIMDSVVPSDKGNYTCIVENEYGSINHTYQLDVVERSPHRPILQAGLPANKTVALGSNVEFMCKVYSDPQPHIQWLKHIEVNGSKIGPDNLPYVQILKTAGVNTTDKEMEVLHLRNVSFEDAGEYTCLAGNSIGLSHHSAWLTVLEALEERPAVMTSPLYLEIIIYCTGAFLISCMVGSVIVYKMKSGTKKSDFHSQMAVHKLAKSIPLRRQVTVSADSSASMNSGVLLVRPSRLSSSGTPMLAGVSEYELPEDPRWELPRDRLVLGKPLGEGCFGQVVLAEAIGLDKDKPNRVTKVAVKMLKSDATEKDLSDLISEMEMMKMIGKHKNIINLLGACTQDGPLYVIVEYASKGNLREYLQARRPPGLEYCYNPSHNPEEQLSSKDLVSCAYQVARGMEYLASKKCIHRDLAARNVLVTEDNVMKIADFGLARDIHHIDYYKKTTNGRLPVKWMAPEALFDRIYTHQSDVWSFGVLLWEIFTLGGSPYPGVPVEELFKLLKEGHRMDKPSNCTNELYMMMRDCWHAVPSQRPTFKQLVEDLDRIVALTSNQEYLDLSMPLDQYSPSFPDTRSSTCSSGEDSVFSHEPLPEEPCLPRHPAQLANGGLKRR
Procedure: as §1, §2, §3, §4

Chain of FGFR3 (V555M) (P22607 23-806 V555M): as the sequence (P22607 23-806) above, with V533M counted along it

Structure (SMILES)	Kd (FGFR3 (V555M))	Kd (FGFR2)	Kd (FGFR4)	Kd (FGFR3)	Kd (FGFR1)	Kd (FGFR3 (V555M); given as a number)
Cc1ncc(Cl)c([C@@H](C)Oc2ccc3[nH]nc(-c4ccc(N5CCC[C@H]5CO)nc4)c3c2)c1Cl [Example 241, [(2S)-1-[5-[5-[(1R)-1-(3,5-dichloro-2-methyl-4-pyridyl)ethoxy]-1H-indazol-3-yl]-2-pyridyl]pyrrolidin-2-yl]methanol]	1 to 20 nM	20 to 100 nM	1 to 20 nM	1 to 20 nM	1 to 20 nM	–
C[C@@H](Oc1cc2c(-c3ccc(N4CC5(C4)CN(S(C)(=O)=O)C5)nc3)n[nH]c2cc1Cl)c1c(Cl)cnnc1Cl [Example 263, (R)-6-chloro-5-(1-(3,5-dichloropyridazin-4-yl)ethoxy)-3-(6-(6-(methylsulfonyl)-2,6-diazaspiro[3.3]heptan-2-yl)pyridin-3-yl)-1H-indazole]	1 to 20 nM	1 to 20 nM	1 to 20 nM	1 to 20 nM	1 to 20 nM	–
C[C@@H](Oc1ccc2[nH]nc(-c3cnc(N4CC5(CCNCC5)C4)nc3)c2c1)c1c(Cl)cncc1Cl [Example 133, 3-[2-(2,7-diazaspiro[3.5]nonan-2-yl)pyrimidin-5-yl]-5-[(1R)-1-(3,5-dichloro-4-pyridyl)ethoxy]-1H-indazole]	1 to 20 nM	1 to 20 nM	1 to 20 nM	1 to 20 nM	1 to 20 nM	–
Cc1cc2[nH]nc(-c3cnc(N4CC5(C4)CN(S(C)(=O)=O)C5)c(F)c3)c2cc1O[C@H](C)c1c(Cl)cnc(C)c1Cl [Example 273, 5-[(1R)-1-(3,5-dichloro-2-methyl-4-pyridyl)ethoxy]-3-[5-fluoro-6-(2-methylsulfonyl-2,6-diazaspiro[3.3]heptan-6-yl)-3-pyridyl]-6-methyl-1H-indazole]	–	20 to 100 nM	1 to 20 nM	1 to 20 nM	20 to 100 nM	1.8 nM
Cc1cnnc(C)c1[C@@H](C)Oc1ccc2[nH]nc(-c3ccc(N4CC5(CCOC5)C4)nc3)c2c1 [Example 206, (R)-2-(5-(5-(1-(3,5-dimethylpyridazin-4-yl)ethoxy)-1H-indazol-3-yl)pyridin-2-yl)-6-oxa-2-azaspiro[3.4]octane]	1 to 20 nM	1 to 20 nM	1 to 20 nM	1 to 20 nM	1 to 20 nM	–
CCOC(=O)N1CC2(C1)CN(c1ccc(-c3n[nH]c4ccc(O[C@H](C)c5c(Cl)cnc(C)c5Cl)cc34)cn1)C2 [Example 190, ethyl 6-[5-[5-[(1R)-1-(3,5-dichloro-2-methyl-4-pyridyl)ethoxy]-1H-indazol-3-yl]-2-pyridyl]-2,6-diazaspiro[3.3]heptane-2-carboxylate]	1 to 20 nM	100 to 300 nM	20 to 100 nM	1 to 20 nM	100 to 300 nM	–
Cc1cnnc(C)c1[C@@H](C)Oc1ccc2[nH]nc(-c3ccc(N4CC5(CCCN(C(=O)OC(C)C)C5)C4)nc3)c2c1 [Example 189, isopropyl 2-[5-[5-[(1R)-1-(3,5-dimethylpyridazin-4-yl)ethoxy]-1H-indazol-3-yl]-2-pyridyl]-2,8-diazaspiro[3.5]nonane-8-carboxylate]	1 to 20 nM	1 to 20 nM	1 to 20 nM	1 to 20 nM	20 to 100 nM	–
COc1cc2[nH]nc(-c3ccc(N4CC5(COC5)C4)nc3)c2cc1O[C@H](C)c1c(Cl)cnc(C)c1Cl [Example 211, 6-[5-[5-[(1R)-1-(3,5-dichloro-2-methyl-4-pyridyl)ethoxy]-6-methoxy-1H-indazol-3-yl]-2-pyridyl]-2-oxa-6-azaspiro[3.3]heptane]	1 to 20 nM	1 to 20 nM	1 to 20 nM	1 to 20 nM	1 to 20 nM	–
Cc1cnnc(C)c1[C@H](C)Oc1ccc2[nH]nc(-c3cnc(N4CC5(C4)CN(S(C)(=O)=O)C5)nc3)c2c1 [Example 155, 5-[(1S)-1-(3,5-dimethylpyridazin-4-yl)ethoxy]-3-[2-(2-methylsulfonyl-2,6-diazaspiro[3.3]heptan-6-yl)pyrimidin-5-yl]-1H-indazole]	> 300 nM	> 300 nM	100 to 300 nM	> 300 nM	> 300 nM	–
C[C@@H](Oc1ccc2[nH]nc(-c3cnc(N4CC(CC(F)(F)F)C4)c(C#N)c3)c2c1)c1c(Cl)cncc1Cl [Example 296, 5-[5-[(1R)-1-(3,5-dichloro-4-pyridyl)ethoxy]-1H-indazol-3-yl]-2-[3-(2,2,2-trifluoroethyl)azetidin-1-yl]pyridine-3-carbonitrile]	100 to 300 nM	> 300 nM	20 to 100 nM	> 300 nM	> 300 nM	–
CCOC(=O)N1CC2(C1)CN(c1ncc(-c3n[nH]c4ccc(O[C@H](C)c5c(Cl)cnc(C)c5Cl)cc34)cn1)C2 [Example 185, ethyl 6-[5-[5-[(1R)-1-(3,5-dichloro-2-methyl-4-pyridyl)ethoxy]-1H-indazol-3-yl]pyrimidin-2-yl]-2,6-diazaspiro[3.3]heptane-2-carboxylate]	1 to 20 nM	100 to 300 nM	1 to 20 nM	20 to 100 nM	> 300 nM	–
Cc1ncc(Cl)c([C@@H](C)Oc2cc3c(-c4cnc(N5CC6(C5)CN(S(C)(=O)=O)C6)c(F)c4)n[nH]c3cc2F)c1Cl [Example 269, 5-[(1R)-1-(3,5-dichloro-2-methyl-4-pyridyl)ethoxy]-6-fluoro-3-[5-fluoro-6-(2-methylsulfonyl-2,6-diazaspiro[3.3]heptan-6-yl)-3-pyridyl]-1H-indazole]	1 to 20 nM	20 to 100 nM	1 to 20 nM	1 to 20 nM	20 to 100 nM	–
C[C@@H](Oc1ccc2[nH]nc(-c3cnc(N4CCOCC4)c(C#N)c3)c2c1)c1c(Cl)cncc1Cl [Example 102, 5-[5-[(1R)-1-(3,5-dichloro-4-pyridyl)ethoxy]-1H-indazol-3-yl]-2-morpholino-pyridine-3-carbonitrile]	1 to 20 nM	20 to 100 nM	1 to 20 nM	1 to 20 nM	20 to 100 nM	–
C[C@@H](Oc1ccc2[nH]nc(-c3ccc(N4CC(C)(N)C4)nc3)c2c1)c1c(Cl)cncc1Cl [Example 257, (R)-1-(5-(5-(1-(3,5-dichloropyridin-4-yl)ethoxy)-1H-indazol-3-yl)pyridin-2-yl)-3-methylazetidin-3-amine]	1 to 20 nM	1 to 20 nM	1 to 20 nM	1 to 20 nM	1 to 20 nM	–
COc1cc2[nH]nc(-c3cnc(N4CC5(C4)CN(S(C)(=O)=O)C5)c(CN(C)C)c3)c2cc1O[C@H](C)c1c(Cl)cncc1Cl [Example 357, (R)-1-(5-(5-(1-(3,5-dichloropyridin-4-yl)ethoxy)-6-methoxy-1H-indazol-3-yl)-2-(6-(methylsulfonyl)-2,6-diazaspiro[3.3]heptan-2-yl)pyridin-3-yl)-N,N-dimethylmethanamine]	20 to 100 nM	> 300 nM	1 to 20 nM	100 to 300 nM	> 300 nM	–
CCOC(=O)N1CCC2(CC1)CN(c1ncc(-c3n[nH]c4ccc(O[C@H](C)c5c(Cl)cncc5Cl)cc34)cn1)C2 [Example 126, ethyl 2-[5-[5-[(1R)-1-(3,5-dichloro-4-pyridyl)ethoxy]-1H-indazol-3-yl]pyrimidin-2-yl]-2,7-diazaspiro[3.5]nonane-7-carboxylate]	1 to 20 nM	100 to 300 nM	1 to 20 nM	1 to 20 nM	100 to 300 nM	–
C[C@@H](Oc1ccc2[nH]nc(-c3ccc(N4CCC[C@@H]4CO)nc3)c2c1)c1c(Cl)cncc1Cl [Example 236, ((R)-1-(5-(5-((R)-1-(3,5-dichloropyridin-4-yl)ethoxy)-1H-indazol-3-yl)pyridin-2-yl)pyrrolidin-2-yl)methanol]	1 to 20 nM	1 to 20 nM	1 to 20 nM	1 to 20 nM	20 to 100 nM	–
Cc1cc2[nH]nc(-c3cnc(N4CC5(C4)CN(S(C)(=O)=O)C5)c(F)c3)c2cc1O[C@H](C)c1c(Cl)cnnc1Cl [Example 259, (R)-5-(1-(3,5-dichloropyridazin-4-yl)ethoxy)-3-(5-fluoro-6-(6-(methylsulfonyl)-2,6-diazaspiro[3.3]heptan-2-yl)pyridin-3-yl)-6-methyl-1H-indazole]	1 to 20 nM	1 to 20 nM	1 to 20 nM	1 to 20 nM	1 to 20 nM	–
Cc1cc(-c2n[nH]c3ccc(O[C@H](C)c4c(Cl)cnc(C)c4Cl)cc23)cnc1N1CC2(CCOC2)C1 [Example 217, 2-[5-[5-[(1R)-1-(3,5-dichloro-2-methyl-4-pyridyl)ethoxy]-1H-indazol-3-yl]-3-methyl-2-pyridyl]-6-oxa-2-azaspiro[3.4]octane]	1 to 20 nM	20 to 100 nM	1 to 20 nM	1 to 20 nM	100 to 300 nM	–
COC(=O)N1CC2(C1)CN(c1ccc(-c3n[nH]c4ccc(O[C@H](C)c5c(Cl)cnc(F)c5Cl)cc34)cn1)C2 [Example 195, methyl 6-[5-[5-[(1R)-1-(3,5-dichloro-2-fluoro-4-pyridyl)ethoxy]-1H-indazol-3-yl]-2-pyridyl]-2,6-diazaspiro[3.3]heptane-2-carboxylate]	1 to 20 nM	20 to 100 nM	20 to 100 nM	1 to 20 nM	100 to 300 nM	–
